This is an account of results in patent publication US6372783B1, “Enantiomeric compounds for treatment of cardiac arrhythmias and methods of use” (Aryx Therapeutics, priority 1999, dated 2002).

For one data set, the system named is Male Sprague-Dawley rats. Put plainly: Anti-arrhythmic activity in anesthetized rats (benzene/adrenaline challenge; VPB, heart rate, EKG intervals). The data set is classed as in vivo, rat. The conditions noted are these: for PR interval / QRS interval / QT interval / Heart rate (beats/minute) / Inhibition of tachycardia / Number of VPB / Inhibition of VPB: isolated enantiomer as compared to respective racemate; for PR interval / QRS interval / QT interval: EKG; for Heart rate (beats/minute) / Inhibition of tachycardia: adrenaline injection; for Number of VPB / Inhibition of VPB: benzene/adrenaline challenge; for Inhibition of VPB: 4 mg/kg i.v. then 12 mg/kg/h for 2 hours; for VPB-inhibiting activity at the end of the washout period: time 180 min; for inhibition of the formation of ventricular premature beats (VPB) during drug administration: whole period of drug administration (time 0 to 120 min); for protection against adrenaline-induced tachyarrhythmia / tachycardia (heart rate): drug administered time 0 to 120 minutes. The protocol:
Anti-arrhythmic Activity in Anesthetized Rats.
Male Sprague-Dawley rats with body weights of 410±30 g (Harlan Sprague Dawley Inc., Indianapolis, Ind.), were anesthetized with sodium pentobarbital (50 mg/kg i.p.—Butler Co., Columbus, Ohio). The skin from the neck area was removed and the jugular veins on both sides were cleared of connective tissue. Both jugular veins and the left carotid artery were isolated, and the latter tied up cranially with a surgical silk (ETHICON 4-0, Ethicon Inc., Australia). A plastic catheter ([…] 19 ga, Vecton Dickinson, Sandy, Utah), filled with a solution containing 10% sodium heparin (Elkins-Sinn Inc., Cherry Hill, N.J.) in normal saline (100 U/ml sodium heparin), was introduced into the artery and fixed with surgical silk.
The catheter was connected to a pressure transducer (OHMEDA P23-XL, Ohmeda Medical Devices Division Inc., Madison, Wis.), filled with the same heparinized 0.9% NaCl solution, to register beat-to-beat arterial pressure. Needle electrodes were inserted s.c., and together with the pressure transducer, were joined to a GOULD TA 2000 recorder. Leads II, aVF and intraarterial blood pressure were monitored simultaneously throughout the experiments and recorded at certain intervals at 50 and 200 mm/sec paper speed.
The surgery was completed with an incision on the trachea where a short plastic tubing was placed and the animal was connected to a rodent-model ventilator (HARVARD Model 683, Harvard Apparatus, Inc., Holliston, Mass.). The animals were ventilated in a controlled way, depending on their spontaneous breathing frequency (55-75/min).
Drug administrations were carried out through i.v. catheters (TERUMO 24 GA*¾″, Terumo Medical Corp., Elkton, Md.) inserted into both jugular veins. The left side was used for drug infusions by means of a syringe pump (SAGE INSTRUMENTS, Model 341B, Orion Res. Inc., Boston, Mass.), and the right side was used for adrenaline injections. The experiments were started after at least 15 minutes of stabilization. Benzene/adrenaline challenges were performed as follows: the respirator inlet was connected to a 50-ml bubbler half-full with benzene (Fisher Scientific, Fair Lawn, N.J.) so that the inspired air was saturated with benzene vapor. The animal was ventilated with benzene vapor for two minutes. The tidal volume was typically 1 ml/100 g of animal. During the last 30 seconds of benzene ventilation, 10 μg/kg adrenaline solution (in 0.9% NaCl) was injected into the right jugular vein. […] These arrhythmias could be elicited repeatedly. After three control VTs (at −30, −20 and −10 minutes), the test compounds were injected slowly during 30 seconds at a dose of 4 mg/kg i.v., immediately followed by a slow infusion of 12 mg/kg/h for 2 hours. The flow rate during the infusion period was 1 ml/h.
There were 5 rats per test compound and each animal served as its own control. The ability of the different drugs to suppress arrhythmias was tested against repeated benzene/adrenaline challenges at 5, 15, 30,45, 60, 90, 120 (end of drug infusion), 135, 150, 165 and 180 minutes after the i.v. bolus injection. The amplitudes of the systolic arterial pressure and diastolic arterial pressure […] with the help of a pressure-amplitude calibration curve. Heart rate, number of ventricular complexes during the occurrence of VTs and VPBs, and certain ECG parameters (PR, QRS, QT durations and RR cycle lengths in msec) were also recorded and measured manually. At each time-point, 3-5 cycles were measured and the average values were entered into EXCEL Windows 97. The average and standard deviation for the five experimental animals per compound were calculated.

A short description of data set [1]: Half-life in human plasma in vitro. Type of data set: in vitro ADME. Particulars: for half-life in human plasma: 37° C. The protocol:
Half-life in Human Plasma in Vitro.
Venous blood (60 ml) was collected in heparinized 1 5-ml Vacutainer® tubes from the forearm of five human volunteers. Each tube contained 1,000 units of heparin sodium salt. The blood was immediately centrifuged at 2,000 g for 10 minutes and the plasma was collected. Immediately after collection, the plasma was divided into 2-ml aliquots in borosilicate glass tubes (5-ml capacity) capped with a plastic stopper. The tubes were then equilibrated in a 37° C.-water bath for at least 15 minutes before the test samples were added.
Stock solutions were prepared by dissolving 25 μmoles (about 18 mg) of each of the test compounds in 10 ml of deionized water. To each of the glass tubes containing 2 ml of fresh plasma, equilibrated at 37° C., was added 40 μl of the stock solutions (one test compound per tube). The plasma/stock solutions were then mixed. Samples (250 μl) were collected at time 0 (immediately after mixing test compounds in plasma) and then at 30, 60, 90, 120, 180, 240, and 300 minutes. The test tubes were capped, to avoid concentration due to evaporation, and left in the 37° C. bath during the entire experiment. Each aliquot was immediately introduced into a 1.5-ml microfuge tube containing 20 μl of a 0.01% solution of diethyl paranitrophenylphosphate (paraoxon) in ethanol in order to inhibit esterase activity. The tubes were then capped and vortexed, then kept at −20° C. until analysis. The samples were thawed and mixed with 750 μl of a 0.1% solution of trifluoroacetic acid (TFA) in acetonitrile, vortexed for thorough mixing, and then centrifuged at 12,000 g for 15 minutes. The supernatant was collected for injection in the HPLC system.
The HPLC mobile phase consisted of acetonitrile and water containing 0.1% TFA and 400 mg/L benzyltriethylammoniumchloride (BTEAC) in the following proportions and flow rates: 85% acetonitrile and 15% water at 2.0 ml/min. The detection wavelength was set at 242 nm, and the injected volume was 100 μL. The HPLC peaks were recorded, and the integrated values were plotted against time using the SIGMAPLOT software version 4.0 for WINDOWS. The resulting curves were fitted to a first-order exponential decay equation from which hydrolysis half-lives were calculated.

[2] abbreviates: benzene vapors and adrenaline challenge.

For `CCN(CC)CCOc1c(I)cc(C(=O)c2c(CC(=O)O[C@H](C)C(C)C)oc3ccccc23)cc1I` [Compound R-2055, (R)-(3-Methyl)-2butyl 2-[3-(3,5-diiodo-4-(2-diethylaminoethyloxy)benzoyl)]benzo-furaneacetate], in the data set on Male Sprague-Dawley rats (anesthetized rats), the PR interval result is on record as “shorter”, the QRS interval result is given as “longer”, the QT interval entry is recorded as “no change” and the “Heart rate (beats/minute)” value was “lower”. Besides, in the data set on Male Sprague-Dawley rats (anesthetized rats), the Inhibition of tachycardia entry is “longer”, the “Number of VPB” value was “lower” and the “Inhibition of VPB” value is on record as “longer”. The “VPB-inhibiting activity at the end of the washout period” value (“VPB-inhibiting activity at the end” for short) with Male Sprague-Dawley rats is on record as “still retained part of its activity”. Also, the “inhibition of the formation of ventricular premature beats (VPB) during drug administration” value with Male Sprague-Dawley rats (setting [2]) is given as “totally inhibited”. The “half-life in human plasma” value in data set [1] came to 11.7 h.
On to `CC[C@H](C)OC(=O)Cc1oc2ccccc2c1C(=O)c1cc(I)c(OCCN(CC)CC)c(I)c1` [R,S-2042], for which the “anti-arrhythmic activity (VPB inhibition) of the racemate relative to the enantiomers” value in the data set on Male Sprague-Dawley rats (setting [2]) is “even less active than either the R- or the S-isomer”. For the same compound, the “protection against adrenaline-induced tachyarrhythmia / tachycardia (heart rate)” value with Male Sprague-Dawley rats (comparison of the forms) was “least potent and shortest acting”.
Consider `CCN(CC)CCOc1c(I)cc(C(=O)c2c(CC(=O)O[C@@H](C)C(C)C)oc3ccccc23)cc1I` [Compound S-2055, (S)-(3-Methyl)-2butyl 2-[3-(3,5-diiodod-4-(2-diethylaminoethyloxy)benzoyl)]benzo-furaneacetate], for which, in the data set with Male Sprague-Dawley rats (anesthetized rats), the PR interval entry is “shorter”, the QRS interval entry was “longer”, the QT interval result is on record as “no change” and the “Heart rate (beats/minute)” value was “lower”. Further, in the data set with Male Sprague-Dawley rats (anesthetized rats), the Inhibition of tachycardia entry was “longer”, the “Number of VPB” value is “lower” and the “Inhibition of VPB” value was “longer”. Also, in the data set on Male Sprague-Dawley rats, the “VPB-inhibiting activity at the end” value is “completely inactive”. Besides, the “half-life in human plasma” value in data set [1] came to 8.8 h.
Take `CC[C@@H](C)OC(=O)Cc1oc2ccccc2c1C(=O)c1cc(I)c(OCCN(CC)CC)c(I)c1` [Compound R-2042, (R)-sec-Butyl2-[3-(3,5-diiodo-4-(2-diethylaminoethyloxy)benzoyl)]benzofurane-acetate]: in the data set with Male Sprague-Dawley rats (anesthetized rats), the PR interval result is listed as “shorter”, the QRS interval entry is on record as “no change”, the QT interval entry is given as “no change” and the “Heart rate (beats/minute)” value was “lower”. In the data set on Male Sprague-Dawley rats (anesthetized rats), the Inhibition of tachycardia entry is on record as “longer”, the “Number of VPB” value is reported as “lower” and the “Inhibition of VPB” value is recorded as “longer”. Moreover, the “VPB-inhibiting activity at the end” value in the data set with Male Sprague-Dawley rats was “completely inactive”.
As to `CC[C@H](C)OC(=O)Cc1oc2ccccc2c1C(=O)c1cc(I)c(OCCN(CC)CC)c(I)c1` [Compound S-2042, (S)-sec-Butyl2-[3-(3,5-diiodo-4-(2-diethylaminoethyloxy)benzoyl)]benzofurane-acetate], the “effect on QT segment / interval of the EKG (Class-III properties), potency” value with Male Sprague-Dawley rats (anesthetized rats, comparison of the forms) was “most potent and the longest acting”. In the data set on Male Sprague-Dawley rats (anesthetized rats), the PR interval result is on record as “longer”, the QRS interval result is recorded as “longer”, the QT interval result is “longer” and the “Heart rate (beats/minute)” value was “lower”. In the data set on Male Sprague-Dawley rats (anesthetized rats), the Inhibition of tachycardia entry is recorded as “longer”, the “Number of VPB” value is “lower” and the “Inhibition of VPB” value is recorded as “longer”. In the data set on Male Sprague-Dawley rats, the “VPB-inhibiting activity at the end” value is reported as “still retained part of its activity”. For the same compound, in the data set on Male Sprague-Dawley rats (setting [2]), the “inhibition of the formation of ventricular premature beats (VPB) during drug administration” value was “totally inhibited”.
With `CC[C@H](C)OC(=O)Cc1oc2ccccc2c1C(=O)c1cc(I)c(OCCN(CC)CC)c(I)c1` [ATI-2042], the “protection against adrenaline-induced tachyarrhythmia / tachycardia (heart rate)” value in the data set with Male Sprague-Dawley rats (comparison of the forms) was “very good protection”. Besides, the “metabolism in human plasma” value in data set [1] is on record as “metabolized in human plasma by esterase enzymes”.
Turning to `CCN(CC)CCOc1c(I)cc(C(=O)c2c(CC(=O)OC(C)C(C)C)oc3ccccc23)cc1I` (stereo not shown) [ATI-2055], the “protection against adrenaline-induced tachyarrhythmia / tachycardia (heart rate)” value in the data set with Male Sprague-Dawley rats (comparison of the forms) was “inhibits the tachycardia”. The “metabolism in human plasma” value in data set [1] was “metabolized in human plasma by esterase enzymes”.
